Laboratory results as given in ChEMBL document CHEMBL5030563, “Structure-Based Design of Dual-Acting Compounds Targeting Adenosine A2A Receptor and Histone Deacetylase as Novel Tumor Immunotherapeutic Agents” (J Med Chem, 2021).

Legend:
MC38 = experiment: Inhibition of HDAC in mouse MC38 cells assessed as increase in acetyl-histone H3 measured after 24 hrs by Western blot analysis; type: cell-based
[1] = molecular target: T1, Protein deacetylase HDAC6 (Homo sapiens, UniProt Q9UBN7); experiment: Inhibition of HDAC6 (unknown origin) assessed as release of 7-amino-4-methylcoumarin incubated in room temperature for 15 min measured by Spectra max microtitre plate reader
T1 sequence (Q9UBN7 whole entry): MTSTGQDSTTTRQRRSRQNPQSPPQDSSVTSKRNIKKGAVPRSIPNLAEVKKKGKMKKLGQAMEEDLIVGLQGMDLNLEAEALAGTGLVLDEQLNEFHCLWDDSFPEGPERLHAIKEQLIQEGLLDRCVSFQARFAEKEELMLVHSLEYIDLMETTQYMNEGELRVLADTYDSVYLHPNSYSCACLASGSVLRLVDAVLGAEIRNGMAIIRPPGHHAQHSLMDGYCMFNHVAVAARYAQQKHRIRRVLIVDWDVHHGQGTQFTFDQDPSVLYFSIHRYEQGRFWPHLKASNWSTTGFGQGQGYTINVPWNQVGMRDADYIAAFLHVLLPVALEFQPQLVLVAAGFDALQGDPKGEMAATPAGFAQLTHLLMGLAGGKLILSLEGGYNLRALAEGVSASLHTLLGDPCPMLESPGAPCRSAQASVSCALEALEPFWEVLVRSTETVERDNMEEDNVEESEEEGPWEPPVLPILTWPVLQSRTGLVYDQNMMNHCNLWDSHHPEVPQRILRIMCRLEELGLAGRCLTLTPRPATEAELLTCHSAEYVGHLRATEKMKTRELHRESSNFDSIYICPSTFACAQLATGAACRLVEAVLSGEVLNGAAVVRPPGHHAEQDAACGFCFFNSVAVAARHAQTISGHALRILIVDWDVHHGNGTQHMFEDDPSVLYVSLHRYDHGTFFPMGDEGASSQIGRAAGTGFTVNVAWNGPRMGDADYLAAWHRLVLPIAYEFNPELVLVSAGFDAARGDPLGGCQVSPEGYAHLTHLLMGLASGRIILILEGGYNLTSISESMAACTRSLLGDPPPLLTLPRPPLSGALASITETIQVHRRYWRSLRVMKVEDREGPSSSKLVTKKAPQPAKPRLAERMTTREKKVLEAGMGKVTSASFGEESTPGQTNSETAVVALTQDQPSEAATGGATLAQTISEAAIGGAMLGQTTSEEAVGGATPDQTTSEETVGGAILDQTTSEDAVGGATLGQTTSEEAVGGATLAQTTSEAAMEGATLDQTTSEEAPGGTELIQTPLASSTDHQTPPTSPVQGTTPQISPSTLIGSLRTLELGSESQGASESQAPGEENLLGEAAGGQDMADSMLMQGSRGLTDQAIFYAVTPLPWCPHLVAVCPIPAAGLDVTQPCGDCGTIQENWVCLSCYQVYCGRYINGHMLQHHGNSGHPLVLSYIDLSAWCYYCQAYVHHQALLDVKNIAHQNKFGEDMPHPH

MC-38 = experiment: Antitumour activity against mouse MC38 cells in C57BL/6 mouse assessed as tumour growth inhibition at 30 mg/kg, ip, bid measured after 9 days relative to control; type: functional; settings: MC-38, ip, 216 h, time 9 day, read-out: TGI
Adenosine receptor A3 = molecular target: T2, Adenosine receptor A3 (Homo sapiens, UniProt P0DMS8); experiment: Displacement of [3H]DPCPX from human adenosine A3 receptor membrane (unknown origin) measured after 60 mins by scintillation counting analysis; type: cell membranes
T2 sequence (P0DMS8 whole entry): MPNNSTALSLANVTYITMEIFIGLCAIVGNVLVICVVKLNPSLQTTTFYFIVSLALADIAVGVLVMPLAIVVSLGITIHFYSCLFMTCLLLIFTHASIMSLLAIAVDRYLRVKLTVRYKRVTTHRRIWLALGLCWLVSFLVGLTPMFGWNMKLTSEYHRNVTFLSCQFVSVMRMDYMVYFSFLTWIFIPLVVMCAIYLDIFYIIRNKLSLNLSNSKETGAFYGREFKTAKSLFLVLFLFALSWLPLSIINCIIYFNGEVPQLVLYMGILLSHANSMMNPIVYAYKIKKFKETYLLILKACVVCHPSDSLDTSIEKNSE

[2] = AUC (0 to infinity) in ICR mouse at 20 mg/kg, po by LC-MS/MS analysis; type: ADME, organism-based; design: time infinity, route oral, dose 20 mg/kg; settings: in vivo
[3] = Volume of distribution in ICR mouse at 5 mg/kg, iv up to 24 hrs by LC-MS/MS analysis; type: ADME, organism-based; settings: in vivo

SMILES: Nc1ccccc1NC(=O)c1ccc(CCn2ncc3c2nc(N)n2nc(-c4ccco4)nc32)cc1
- Activity (MC38): Dose-Dependent Effect
- IC50 [1]: > 10 µM
- inhibition in vivo at 30 mg/kg (MC-38): 57.8%
- Ki (Adenosine receptor A3): > 10 µM
- AUC(0-inf) [2]: 1810 ng·h/mL
- Vd [3]: 1.19 L/kg
